# Legend:
# [1] = tested on: MOLM-14 D835Y cells, FLT3 ITD and FLT3 D835Y; assay: Cell proliferation assay (CellTiter-Glo), MOLM-14 D835Y; type: cell-based; conditions: Homo sapiens, 72 h, 3d-Growth, GMean
# In short: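 MOLM-14 AML cells (endogenous FLT3 ITD, AC220-selected D835Y or F691L variants) or murine Ba/F3 expressing full-length FLT3 ITD/D835Y, without IL-3 for FLT3 dependence, 1×10^4 cells/well. Eight-point 1:3 series from 1 μM final, 0.2% DMSO, 3 days at 37 °C. CellTiter-Glo luminescence (ATP) gave IC50.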
# [2] = molecular target: T1, FLT3-ITD (Homo sapiens, UniProt P36888); assay: AlphaScreen kinase assay with recombinant enzyme, FLT3-ITD; type: biochemical; conditions: 8pt; read-out: FLT3_ITD 8pt: IC50
# T1 sequence (P36888 1-993): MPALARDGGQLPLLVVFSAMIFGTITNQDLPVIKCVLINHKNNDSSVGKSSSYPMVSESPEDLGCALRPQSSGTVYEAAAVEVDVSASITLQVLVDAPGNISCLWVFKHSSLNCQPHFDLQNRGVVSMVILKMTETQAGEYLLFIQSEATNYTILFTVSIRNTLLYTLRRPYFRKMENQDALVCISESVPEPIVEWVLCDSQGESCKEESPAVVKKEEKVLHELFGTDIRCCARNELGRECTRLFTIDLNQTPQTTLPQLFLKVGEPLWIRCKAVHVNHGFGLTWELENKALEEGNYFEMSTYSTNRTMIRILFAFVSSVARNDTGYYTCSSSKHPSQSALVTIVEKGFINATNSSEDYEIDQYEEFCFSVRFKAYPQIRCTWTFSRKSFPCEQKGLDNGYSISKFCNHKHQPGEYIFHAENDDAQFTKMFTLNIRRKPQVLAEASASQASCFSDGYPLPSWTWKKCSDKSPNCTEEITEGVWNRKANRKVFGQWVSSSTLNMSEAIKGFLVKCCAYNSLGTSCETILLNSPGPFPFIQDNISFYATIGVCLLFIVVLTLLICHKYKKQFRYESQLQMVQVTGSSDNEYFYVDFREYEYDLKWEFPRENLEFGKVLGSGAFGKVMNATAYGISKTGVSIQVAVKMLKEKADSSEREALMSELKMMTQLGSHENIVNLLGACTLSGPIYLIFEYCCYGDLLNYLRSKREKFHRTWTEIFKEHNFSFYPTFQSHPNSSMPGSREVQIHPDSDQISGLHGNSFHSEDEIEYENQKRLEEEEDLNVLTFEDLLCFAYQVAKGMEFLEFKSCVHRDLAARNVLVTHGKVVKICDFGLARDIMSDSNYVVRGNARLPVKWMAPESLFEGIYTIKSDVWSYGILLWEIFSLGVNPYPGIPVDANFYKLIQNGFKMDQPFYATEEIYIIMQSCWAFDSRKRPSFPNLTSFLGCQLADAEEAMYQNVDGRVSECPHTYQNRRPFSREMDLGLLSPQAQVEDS
# In short: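 Inhibition was measured as a drop in AlphaScreen signal arising from phosphotyrosine-bead capture of a biotinylated poly(Glu4-Tyr) peptide (30 nM) phosphorylated by recombinant kinase. For IC50 work the stated final concentration was 10 μM for the FLT3 mutants and 100 μM for c-KIT.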
IC50 [1] [µM],IC50 [2] [µM],Structure (SMILES)
0.0001 to 10,0.0001 to 10,"N#CC1CCN(C(=O)c2cccc(-c3cnc4[nH]c(C5=CCOCC5)c(Cl)c4c3)n2)C1 (centres unmarked) [Compound P-0142, 1-[6-[3-chloro-2-(3,6-dihydro-2H-pyran-4-yl)-1H-pyrrolo[2,3-b]pyridin-5-yl]pyridine-2-carbonyl]pyrrolidine-3-carbonitrile]"
0.0001 to 10,0.0001 to 10,"N#CCCNC(=O)c1cccc(-c2cnc3[nH]c(-c4ccccc4)c(I)c3c2)n1 [Compound P-0143, N-(2-cyanoethyl)-6-(3-iodo-2-phenyl-1H-pyrrolo[2,3-b]pyridin-5-yl)pyridine-2-carboxamide]"
0.0001 to 10,0.0001 to 10,"CC(C)(C#N)CNC(=O)c1cccc(-c2cnc3[nH]c(-c4ccc(F)cc4)cc3c2)n1 [Compound P-0144, N-(2-cyano-2-methyl-propyl)-6-[2-(4-fluorophenyl)-1H-pyrrolo[2,3-b]pyridin-5-yl]pyridine-2-carboxamide]"
0.0001 to 10,0.0001 to 10,"CC(C)(C#N)NC(=O)c1cccc(-c2cnc3[nH]c(-c4ccc(F)cc4)cc3c2)n1 [Compound P-0145, N-(1-cyano-1-methyl-ethyl)-6-[2-(4-fluorophenyl)-1H-pyrrolo[2,3-b]pyridin-5-yl]pyridine-2-carboxamide]"
0.0001 to 10,0.0001 to 10,"N#CC1(NC(=O)c2cccc(-c3cnc4[nH]c(-c5ccccc5)cc4c3)n2)CCCC1 [Compound P-0146, N-(1-cyanocyclopentyl)-6-(2-phenyl-1H-pyrrolo[2,3-b]pyridin-5-yl)pyridine-2-carboxamide]"
0.0001 to 10,0.0001 to 10,"N#CCCNC(=O)c1cccc(-c2cnc3[nH]c(-c4ccccc4)c(Br)c3c2)n1 [Compound P-0147, 6-(3-bromo-2-phenyl-1H-pyrrolo[2,3-b]pyridin-5-yl)-N-(2-cyanoethyl)pyridine-2-carboxamide]"
0.0001 to 10,0.0001 to 10,"N#CC1(CNC(=O)c2cccc(-c3cnc4[nH]c(-c5ccccc5)c(Cl)c4c3)n2)CC1 [Compound P-0148, 6-(3-chloro-2-phenyl-1H-pyrrolo[2,3-b]pyridin-5-yl)-N-[(1-cyanocyclopropyl)methyl]pyridine-2-carboxamide]"
0.0001 to 10,0.0001 to 10,"O=C(NC1(C(F)(F)F)CCCC1)c1cccc(-c2cnc3[nH]c(-c4ccccc4)cc3c2)n1 [Compound P-0149, 6-(2-phenyl1H-pyrrolo[2,3-b]pyridin-5-yl)-N-[1-(trifluoromethyl)cyclopentyl]pyridine-2-carboxamide]"
0.0001 to 10,0.0001 to 10,"CC(C)(O)CNC(=O)c1cccc(-c2cnc3[nH]c(-c4ccccc4)cc3c2)n1 [Compound P-0150, N-(2-hydroxy-2-methyl-propyl)-6-(2-phenyl-1H-pyrrolo[2,3-b]pyridin-5-yl)pyridine-2-carboxamide]"
0.0001 to 10,0.0001 to 10,"O=C(NC1(CO)CC1)c1cccc(-c2cnc3[nH]c(-c4ccccc4)cc3c2)n1 [Compound P-0151, N-[1-(hydroxymethyl)cyclopropyl]-6-(2-phenyl-1H-pyrrolo[2,3-b]pyridin-5-yl)pyridine-2-carboxamide]"
0.0001 to 10,0.0001 to 10,"CC(C)(C#N)CNC(=O)c1cccc(-c2cnc3[nH]c(-c4ccnc(C5CC5)c4)cc3c2)n1 [Compound P-0152, N-(2-cyano-2-methyl-propyl)-6-[2-(2-cyclopropyl-4-pyridyl)-1H-pyrrolo[2,3-b]pyridin-5-yl]pyridine-2-carboxamide]"
0.0001 to 10,0.0001 to 10,"CC(C)(C#N)CNC(=O)c1cccc(-c2cnc3[nH]c(-c4cnn(C(F)F)c4)cc3c2)n1 [Compound P-0153, N-(2-cyano-2-methyl-propyl)-6-[2-[1-(difluoromethyl)pyrazol-4-yl]-1H-pyrrolo[2,3-b]pyridin-5-yl]pyridine-2-carboxamide]"
0.0001 to 10,0.0001 to 10,"COc1cc(-c2cc3cc(-c4cccc(C(=O)NCC(C)(C)C#N)n4)cnc3[nH]2)ccn1 [Compound P-0154, N-(2-cyano-2-methyl-propyl)-6-[2-(2-methoxy-4-pyridyl)-1H-pyrrolo[2,3-b]pyridin-5-yl]pyridine-2-carboxamide]"
